# Key:
# J774 macrophages = assay: Alamar Blue macrophage J774 viability assay; format: cell-based; details: Mus musculus, 72 hours culture with compound, Alamar Blue read-out
# Procedure: (§1) Initial screening of candidate compounds was performed using in vitro assays to determine potency, metabolic stability and solubility in biologically relevant fluids. Potency was assessed using a viability assay based on the survival of the J774 macrophage cell line. Macrophages are closely related to osteoclasts and have been used previously as a model system for osteoclast survival (see, e.g., Luckman et al., 1998). Like osteoclasts, J774 macrophages are dependent on continued NFκB activation for survival, thereby providing a valuable screen for compounds with anti-inflammatory activity. Metabolic stability was measured by determining the rate of disappearance of compound in the presence of human liver microsomal preparations, as quantified by LC-MS/MS. Solubility was measured by equilibration of the compound in fasted state simulated intestinal fluid (FaSSIF) and quantified by HPLC.
# In vitro potency as anti-inflammatory agents was determined for a number of APSAP compounds by incubation with J774 macrophages and subsequent determination of cell viability.
# J774 cells were plated at 10^4 cells per well in 100 μL αMEM (α Modified Eagle Medium) in 96-well plates and grown overnight. The next day, test compounds were added to the cultures, and cultures were continued for another 72 hours. At the end of the culture period, cell survival was determined using an Alamar Blue assay as previously described (see, e.g., Nociari et al., 1998).
# Alamar Blue is an oxidation-reduction sensitive indicator. The dye itself is in the oxidised state, which is blue and non-fluorescent. The dye can accept electrons from reducing species, such as NADPH and FADH, to form a reduced dye species, which is red and fluorescent. Thus the transformation from oxidised form to reduced form can be measured by fluorimetric or colourimetric means. For fluorescence measurements, 530-560 nm excitation and 590 nm emission wavelengths are typically used. For colourimetric measurements, absorbance at 570 nm (reduced form) and 600 nm (oxidised form) is typically measured. A simple calculation is performed to determine the relative quantities of the two species.
# A high ratio of the reducing species, NADPH and FADH, to the corresponding oxidised species, NADP and FAD, is an indicator that cells are proliferating and viable. A low ratio indicates cells that are quiescent or non-viable.
# Briefly, Alamar Blue (Biosource International) was added undiluted to each well (1:10 v/v, 10 μL). The plate was incubated at 37° C. for 3-4 hours and the fluorescence was measured at 590 nm, with a 25 nm bandwidth. A high reading indicated cells with normal viability, and a low reading indicated cells that have been damaged and are no longer proliferating normally. The controls gave a high fluorescence reading, indicating a high number of live, healthy cells. A potent test compound gave a low fluorescence reading.
# The average results for each test compound (n=5) were expressed as a percent (%) of the average control value.
# Addition of Compounds. All of the compounds studied were made up as 100 mM solutions in DMSO. These stock solutions were then diluted 1000-10000× in culture medium (αMEM). From these 100 μM or 10 μM solutions, convenient quantities (3-33 μL) were added directly to the wells so as to give the desired final compound concentration.
# [1] = Thermodynamic aqueous solubility in fasted state simulated intestinal fluid (FaSSIF); format: physicochemical; details: fasted state simulated intestinal fluid (FaSSIF), pH 6.5, thermodynamic from solid, 25° C., 24 hours equilibration, HPLC
# Procedure: as §1
# Thermodynamic aqueous solubility was measured by equilibration of a number of APSAP compounds, in the solid state, with fasted state simulated intestinal fluid (FaSSIF) and quantified by HPLC. Measurement of solubility in FaSSIF provides a valuable model for the prediction of drug dissolution following oral administration.
# Preparation of blank FaSSIF: NaOH pellets (174 mg), NaH2PO4.2H2O (2.235 g), and NaCl (3.093 g) were dissolved in 500 mL of water. The pH was adjusted to 6.5 using 1 M NaOH solution.
# Preparation of FaSSIF: Sodium taurocholate (165 mg) was dissolved in 25 mL blank FaSSIF. 0.6 mL of a solution containing 100 mg/mL lecithin in methylene chloride was added. The methylene chloride was eliminated under vacuum at about 40° C. The vacuum was drawn for 15 minutes at 250 mbar, followed by 15 minutes at 100 mbar. […] After cooling to room temperature, the solution was then adjusted to 100 mL with blank FaSSIF.
# The suspension was equilibrated at 25° C. for 24 hours, and then the pH was measured. The suspension was then filtered through a glass fibre C filter into a 96-well plate. The filtrate was then diluted by a factor of 100. Quantification was made by HPLC with reference to a standard solution of compound at approximately 0.1 mg/mL in DMSO. Different volumes of the standard, diluted and undiluted sample solutions were injected. The solubility was calculated using the peak areas determined by integration of the peak found at the same retention time as the principal peak in the standard injection. Analysis was performed on an Agilent HP1100 series system equipped with a diode array detector and using ChemStation software vB.02.01-SR1.
smiles,measurement,setting,value
"CNC(CO)c1cccc(NS(=O)(=O)c2ccc(-c3ccc(F)cc3F)cc2)c1 (centres unmarked) [ABD789, 2′,4′-Difluoro-N-(3-(2-hydroxy-1-(methylamino)ethyl)phenyl)biphenyl-4-sulfonamide]",IC50,J774 macrophages,140 nM
same,solubility at 24 h,[1],520 µg/mL
